Test results published in ChEMBL document CHEMBL6096664, “Discovery of novel KSP-targeting PROTACs with potent antitumor effects in vitro and in vivo” (Eur J Med Chem, 2025).
pIC50: −log10 of the molar value.

Columns and labels:
HCT-116 [1] = experiment: Induction of apoptosis in human HCT-116 cells assessed as early apoptotic cells at 10 nM incubated for 48 hrs by Annexin V-FITC/PI staining based flow cytometry analysis (reference value: 3.02 %); format: functional
HCT-116 [2] = experiment: Antitumor activity against human HCT-116 cells xenografted in female BALB/c nu/nu mouse assessed as reduction in tumor volume at 15 mg/kg, ip measured every 2 days for 14 days relative to control; format: functional; set-up: scale not given: the % may be the effect or the level left; conditions: time 14 day
HCT-116 [3] = experiment: Induction of cell cycle arrest in human HCT-116 cells assessed as accumulation of cells at G2/M phase at 10 nM incubated for 24 hrs by RNase A/propidium iodide staining based flow cytometric analysis (reference value: 4.05 %); format: functional
HCT-116 [4] = experiment: Antitumor activity against human HCT-116 cells xenografted in female BALB/c nu/nu mouse assessed as reduction in tumor volume at 7.5 mg/kg, ip measured every 2 days for 14 days relative to control; format: functional; set-up: scale not given: the % may be the effect or the level left; conditions: time 14 day
HCT-116 [5] = experiment: Induction of apoptosis in human HCT-116 cells assessed as early apoptotic cells at 100 nM incubated for 48 hrs by Annexin V-FITC/PI staining based flow cytometry analysis (reference value: 3.02 %); format: functional
HCT-116 [6] = experiment: Induction of cell cycle arrest in human HCT-116 cells assessed as accumulation of cells at S phase at 10 nM incubated for 24 hrs by RNase A/propidium iodide staining based flow cytometric analysis (reference value: 2.84 %); format: functional
HCT-116 [7] = experiment: Induction of cell cycle arrest in human HCT-116 cells assessed as accumulation of cells at S phase at 100 nM incubated for 24 hrs by RNase A/propidium iodide staining based flow cytometric analysis (reference value: 2.84 %); format: functional
A549 = experiment: Antiproliferative activity against human A549 cells assessed as inhibition of cell proliferation measured after 72 hrs by CCK8 assay; format: functional, cell-based; conditions: A549, 72 h
HCT-116 [8] = experiment: Induction of apoptosis in human HCT-116 cells assessed as late apoptotic cells at 100 nM incubated for 48 hrs by Annexin V-FITC/PI staining based flow cytometry analysis (reference value: 1.36 %); format: functional
HCT-116 [9] = experiment: Induction of apoptosis in human HCT-116 cells assessed as necrotic cells at 10 nM incubated for 48 hrs by Annexin V-FITC/PI staining based flow cytometry analysis (reference value: 1.31 %); format: functional
[10] = target: T1, Protein cereblon/Kinesin-like protein KIF11 (Homo sapiens, UniProt P52732+Q96SW2); experiment: PROTAC activity at CRBN/KSP in human HCT-116 cells assessed as induction of KSP degradation at 500 nM incubated for 48 hrs by Western blot analysis relative to control; format: cell-based
T1 sequence (Q96SW2 whole entry, looked up, one chain of several): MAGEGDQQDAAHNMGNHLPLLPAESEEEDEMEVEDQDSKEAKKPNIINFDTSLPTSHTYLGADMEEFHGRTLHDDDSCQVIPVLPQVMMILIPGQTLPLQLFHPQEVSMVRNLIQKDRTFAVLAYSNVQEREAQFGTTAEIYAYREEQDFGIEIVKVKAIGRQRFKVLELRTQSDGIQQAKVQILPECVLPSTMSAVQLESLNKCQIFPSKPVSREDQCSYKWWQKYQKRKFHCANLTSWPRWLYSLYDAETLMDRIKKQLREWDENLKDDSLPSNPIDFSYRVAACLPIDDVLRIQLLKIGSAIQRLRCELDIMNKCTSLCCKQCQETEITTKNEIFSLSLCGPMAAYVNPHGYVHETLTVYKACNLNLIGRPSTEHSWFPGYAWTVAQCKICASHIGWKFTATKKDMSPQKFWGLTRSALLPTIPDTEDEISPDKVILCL

HCT-116 [11] = experiment: Antiproliferative activity against human HCT-116 cells assessed as inhibition of cell proliferation measured after 72 hrs by CCK8 assay; format: functional, cell-based; conditions: HCT-116, 72 h
HCT-116 [12] = experiment: Induction of cell cycle arrest in human HCT-116 cells assessed as accumulation of cells at G1 phase at 100 nM incubated for 24 hrs by RNase A/propidium iodide staining based flow cytometric analysis (reference value: 93.11 %); format: functional
[13] = target: T1, Protein cereblon/Kinesin-like protein KIF11; experiment: PROTAC activity at CRBN/KSP in human HCT-116 cells assessed as induction of KSP degradation at 200 nM pretreated with MLN4924 for 2 hrs followed by compound addition for 24 hrs by Western blot analysis; format: cell-based
HCT-116 [14] = experiment: Induction of apoptosis in human HCT-116 cells assessed as viable cells at 10 nM incubated for 48 hrs by Annexin V-FITC/PI staining based flow cytometry analysis (reference value: 94.31 %); format: functional; conditions: read-out: Activity
HCT-116 [15] = experiment: Antitumor activity against human HCT-116 cells xenografted in female BALB/c nu/nu mouse assessed as reduction in tumor weight at 7.5 mg/kg, ip measured every 2 days for 14 days relative to control; format: functional; set-up: scale not given: the % may be the effect or the level left; conditions: time 14 day
[16] = target: T2, Kinesin-like protein KIF11 (Homo sapiens, UniProt P52732); experiment: Inhibition of KSP (unknown origin) ATPase activity preincubated for 30 mins followed by ATP addition and measured after 15 mins by Kinase-Glo Plus reagent based luminescence analysis
T2 sequence (P52732 whole entry): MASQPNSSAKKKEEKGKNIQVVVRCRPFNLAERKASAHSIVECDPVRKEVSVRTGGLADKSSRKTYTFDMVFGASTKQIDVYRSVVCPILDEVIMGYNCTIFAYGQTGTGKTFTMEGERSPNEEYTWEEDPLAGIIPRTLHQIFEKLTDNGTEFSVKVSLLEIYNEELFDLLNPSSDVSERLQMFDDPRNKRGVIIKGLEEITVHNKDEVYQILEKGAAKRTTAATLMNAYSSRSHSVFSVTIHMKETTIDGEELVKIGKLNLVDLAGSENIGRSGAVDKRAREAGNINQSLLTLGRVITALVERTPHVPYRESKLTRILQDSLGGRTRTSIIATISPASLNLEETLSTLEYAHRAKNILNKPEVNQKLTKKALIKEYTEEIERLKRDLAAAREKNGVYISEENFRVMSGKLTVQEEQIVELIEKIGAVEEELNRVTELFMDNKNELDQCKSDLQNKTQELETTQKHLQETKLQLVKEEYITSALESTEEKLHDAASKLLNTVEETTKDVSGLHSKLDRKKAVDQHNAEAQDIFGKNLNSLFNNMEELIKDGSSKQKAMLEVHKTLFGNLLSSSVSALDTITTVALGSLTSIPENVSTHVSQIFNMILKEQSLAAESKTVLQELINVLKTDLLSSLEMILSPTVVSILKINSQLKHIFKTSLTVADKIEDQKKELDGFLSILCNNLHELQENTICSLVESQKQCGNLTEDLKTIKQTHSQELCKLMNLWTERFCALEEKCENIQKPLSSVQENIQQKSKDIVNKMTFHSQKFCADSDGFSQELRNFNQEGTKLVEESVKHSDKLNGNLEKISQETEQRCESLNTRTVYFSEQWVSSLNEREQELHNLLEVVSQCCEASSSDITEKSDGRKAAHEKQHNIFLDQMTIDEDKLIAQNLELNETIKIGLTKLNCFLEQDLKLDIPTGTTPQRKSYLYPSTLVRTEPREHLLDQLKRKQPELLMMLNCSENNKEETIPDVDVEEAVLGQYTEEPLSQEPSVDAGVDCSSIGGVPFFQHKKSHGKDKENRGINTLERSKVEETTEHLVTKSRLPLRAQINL

MCF7 = experiment: Antiproliferative activity against human MCF7 cells assessed as inhibition of cell proliferation measured after 72 hrs by CCK8 assay; format: functional, cell-based; conditions: MCF7, 72 h
[17] = target: T1, Protein cereblon/Kinesin-like protein KIF11; experiment: PROTAC activity at CRBN/KSP in human HCT-116 cells assessed as induction of KSP degradation at 200 nM pretreated with MG-132 for 2 hrs followed by compound addition for 24 hrs by Western blot analysis; format: cell-based
[18] = target: T1, Protein cereblon/Kinesin-like protein KIF11; experiment: PROTAC activity at CRBN/KSP in human HCT-116 cells assessed as induction of KSP degradation by measuring maximal efficacy incubated for 48 hrs by Western blot analysis relative to control; format: cell-based
MDA-MB-231 = experiment: Antiproliferative activity against human MDA-MB-231 cells assessed as inhibition of cell proliferation measured after 72 hrs by CCK8 assay; format: functional, cell-based; conditions: MDA-MB-231, 72 h

pIC50 (A549): 6.79
Activity [10]: 82.1%
pIC50 (HCT-116 [11]): 7.99
pIC50 [16]: 6.54
pIC50 (MCF7): 6.37
Emax [18]: 90%
pIC50 (MDA-MB-231): 7.45
Compound: COc1ccc(C2(SC[C@H](N)C(=O)NCCCCCCCCNC(=O)COc3cccc4c3C(=O)N(C3CCC(=O)NC3=O)C4=O)c3ccccc3C=Cc3ccccc32)cc1 (stereo partly specified)
Activity (HCT-116 [1]): 13.51%
Activity (HCT-116 [2]): 98%
Activity (HCT-116 [3]): 14.79%
Activity (HCT-116 [4]): 91%
Activity (HCT-116 [5]): 30.35%
Activity (HCT-116 [6]): 9.87%
Activity (HCT-116 [7]): 14.97%
Activity (HCT-116 [8]): 25.55%
Activity (HCT-116 [9]): 13.67%
Activity (HCT-116 [12]): 9.98%
Activity [13]: Not active; Compound Induced Ksp Degradation In Mediated Through Ubiquitin-Proteosome System
viability at 0.01 µM (HCT-116 [14]): 57.9%
Activity (HCT-116 [15]): 97%
Activity [17]: Not active; Compound Induced Ksp Degradation In Mediated Through Ubiquitin-Proteosome System
